Laboratory results: publication PMC6257627, “Target Validation and Identification of Novel Boronate Inhibitors of the Plasmodium falciparum Proteasome” (Journal of Medicinal Chemistry, 2018)
*: point of attachment. AMC = Cc1cc(=O)oc2cc(N*)ccc12

Experiments:
[1] = system: P. falciparum 3D7 parasites; test: Standard 72 h antiplasmodial viability assay, 3D7; format: cell-based, Plasmodium falciparum; conditions: for Pf3D7 LD50 (72 h): sorbitol-treated ring stage, viability in next cycle (~72 h), mean ± SEM, n=3; for Pf3D7 LD50 (72-h): supplement CSV
Protocol: P. falciparum parasites used in this study were propagated in O+ human erythrocytes (Australian Red Cross Blood Service) in RPMI-1640, supplemented with GlutaMAX, 25 mM HEPES (Thermo Fisher Scientific), 5% (v/v) human serum (Australian Red Cross Blood Service), 0.25% (w/v) AlbuMAX II (Thermo Fisher Scientific), 10 μM D-glucose, 22 μg/mL gentamycin (Sigma-Aldrich), and 0.5 mM hypoxanthine (Sigma-Aldrich) and incubated at 37 °C in an atmosphere of 1% O2, 5% CO2, and 94% N2. Cultures were monitored by Giemsa staining of methanol-fixed blood smears. Culture medium was replaced at least every 48 h, and parasitemia was maintained below 10% to ensure health of cultures. The GFP-DD reporter strain was kindly provided by Dr. Paul Gilson, Dr. Brendan Crabb, and Dr. Mauro F. Azevedo (Burnet Institute).
(§1) For standard assays of antiplasmodial activity, sorbitol-treated ring stage parasites were incubated with the drugs for 72 h and viability was assessed in the second cycle.[12] Drug pulse assays were performed as described previously.[47] For short pulse assays, tightly synchronized early ring stage parasites (1–3 h after invasion) at 0.2% hematocrit and 1–2% parasitemia were subjected to 3 h drug pulse at 37 °C and returned to culture until parasites reached trophozoite stage of the following cycle. Cells were then stained with 2 μM Syto-61 (Thermo Fisher Scientific), and their fluorescence was measured by flow cytometry (FACSCanto II cytometer; Becton Dickinson). Data were gated and analyzed using FCS Express software (version 3) to determine parasitemia of each sample. Viability represents the parasitemia normalized to untreated and “kill treated” controls, where “kill treated” refers to samples treated with 2 μM DHA for 48–72 h. Interactions between DHA and MPI-1 or MPI-4 against the K13 mutant (DHA resistant) Cam3.II P. falciparum strain, exposed to a 3 h pulsed treatment, were determined at 4 h after invasion as described previously.[12]

HCT116 cells = test: HCT116 cellular toxicity (CellTiter-Glo, 72 h); format: cell-based, human; conditions: for HCT116 LD50 (72 h): 72 h incubation, mean ± SEM or half range, 2–4 experiments; for HCT116 LD50 (72-h): supplement CSV
Protocol: HCT-116 and HepG2 cells were obtained from the American Type Culture Collection and maintained as recommended by the supplier. Cells were cultured in the ATCC-formulated McCoy’s 5A medium or DMEM (Life Technologies, CA), supplemented with fetal bovine serum to a final concentration of 9–10%, and incubated at 37 °C in an atmosphere of 95% air and 5% CO2. Cellular toxicity assays were performed using Promega’s CellTiter-Glo assay system. Varying concentrations of the test compounds in 5% DMSO/95% PBS were dispensed into a 384-well plate and cells added to each well. The plates were incubated at 37 °C for 72 h, and the CellTiter-Glo assay to assess cell viability was performed as described by the manufacturer (Promega).
For human cell line activity assays, cellular toxicity assays were performed as described previously.[23],[48]

HepG2 cells = test: HepG2 cellular toxicity (CellTiter-Glo, 72 h); format: cell-based, human; conditions: for HepG2 LD50 (72 h): 72 h incubation, mean ± SEM or half range, 2–4 experiments; for HepG2 LD50( 72-h): supplement CSV
[2] = system: P. falciparum Cam3.II^R539T; test: 3 h pulsed exposure viability assay, K13 mutant early rings; format: cell-based, Plasmodium falciparum; conditions: for Cam3.II^R539T LD50 (3 h): early ring (1–3 h p.i.), 3 h pulse, viability in next cycle, mean ± SEM, n=3; for Cam3.IIR539T LD50 (3-h): supplement CSV
Protocol: as §1

[3] = system: P. falciparum Cam3.II^Rev; test: 3 h pulsed exposure viability assay, K13 wild-type revertant early rings; format: cell-based, Plasmodium falciparum; conditions: for Cam3.II^Rev LD50 (3 h): early ring (1–3 h p.i.), 3 h pulse, viability in next cycle, mean ± SEM, n=3; for Cam3.IIRev LD50 (3-h): supplement CSV
Protocol: as §1

[4] = system: bortezomib-resistant 3D7 B1 line (clone B1a); test: 72 h viability assay, bortezomib-resistant B1 line / clone B1a; format: cell-based, Plasmodium falciparum; conditions: for cross-resistance of the bortezomib-resistant parasite line (B1): growth inhibition, versus 3D7; for bortezomib-resistant 3D7 B1 line LD50 (72 h): ring stage, mean ± SEM, n=3; for Bortezomib-resistant3D7 B1 LD50 (72-h): supplement CSV
Protocol: as §1
Prior to selection, an aliquot of the parental line was stocked as a reference for subsequent whole genome sequencing analysis. Several independent clones of P. falciparum 3D7 parasite line were cultured in Petri dishes exposed to increasing drug pressure for ∼30 weeks. Parasites were cloned by limiting dilution. For parasite extraction and genomic DNA isolation, cultures were scaled up to at least 4–5% parasitaemia, lysed in saponin, and genomic DNA was isolated using ISOLATE II Genomic DNA kit (Bioline). DNA libraries for each gDNA sample were prepared for sequencing using the Nextera XT kit as described previously.[50] Libraries were clustered and run on an Illumina HiSeq 2500 using the RapidRun mode, sequencing 100 base pairs in depth on either end. Paired-end reads were either aligned to the P. falciparum 3D7 reference genome (PlasmoDB version 13.0).

[5] = system: Pf20S proteasome β1, β2, β5 subunits; format: biochemical, P. falciparum; conditions: compounds 1 h, purified Pf20S or infected erythrocytes
[6] = system: human constitutive proteasome and immunoproteasome catalytic subunits; test: BMV037 active site probe competition, purified human 20S proteasomes; format: biochemical; conditions: for subunit specificity by BMV037 probe labeling, human constitutive proteasome and immunoproteasome: compounds 1 h, probe 2 h
[7] = system: Pf20S proteasome subunits of bortezomib-resistant parasites; test: BMV037 active site probe competition, bortezomib-resistant parasites; format: biochemical, P. falciparum; conditions: compounds 1 h
Protocol: Figure 3 Active site probe analysis of the proteasome subunit specificity of the selected compounds in 3D7 parent and bortezomib-resistant parasites. Purified Pf20S proteasome from wild-type 3D7 (A) and bortezomib-resistant (C) parasites or wild-type 3D7 (B) and bortezomib-resistant (D) trophozoite-infected erythrocytes were treated with compounds for 1 h, and activity-based probe (BMV037) labeling was performed (postlysis for the trophozoite samples). Fluorescent gel scans reveal subunits that remain active after treatment.
P. falciparum culture, purified Pf20S proteasomes, human constitutive proteasomes, or immunoproteasomes (Boston Biochem) were incubated with test compounds at 37 °C for 1 h. Treated parasite lysates (10 μg), Pf20S proteasomes (80 nM), human constitutive proteasomes (20 nM), or immuno-20S proteasomes (20 nM) were labeled with BMV037 (10 μM) at 37 °C for 2 h. Samples were mixed with SDS loading buffer and heated at 95 °C for 5 min. Samples for P. falciparum and human immuno-20S were run on 4–12% Bis-Tris acrylamide gels using MES SDS running buffer (Thermo Fisher Scientific). Human constitutive 20S samples were run on a 10% Bis-Tris acrylamide gel using MOPS SDS running buffer (Thermo Fisher Scientific). Gels were imaged at the Cy5 channel on a Gel Doc XR+ Documentation System (Bio-Rad) or an Amersham Typhoon Trio imager (GE Healthcare Life Sciences).

[8] = target: Plasmodium falciparum 20S proteasome β1 (Plasmodium falciparum, UniProt Q8I0U7+Q8I6T3); format: biochemical
Chain of Plasmodium falciparum 20S proteasome β1 (Q9UL46 2-239): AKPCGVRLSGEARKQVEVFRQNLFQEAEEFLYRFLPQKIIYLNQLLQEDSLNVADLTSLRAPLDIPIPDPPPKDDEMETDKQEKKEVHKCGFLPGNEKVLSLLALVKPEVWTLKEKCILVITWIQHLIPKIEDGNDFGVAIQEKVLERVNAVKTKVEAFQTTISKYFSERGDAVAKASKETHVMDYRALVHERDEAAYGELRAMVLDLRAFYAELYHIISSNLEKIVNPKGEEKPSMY
Chain of Plasmodium falciparum 20S proteasome β1 (Q8I0U7 entry or part of it): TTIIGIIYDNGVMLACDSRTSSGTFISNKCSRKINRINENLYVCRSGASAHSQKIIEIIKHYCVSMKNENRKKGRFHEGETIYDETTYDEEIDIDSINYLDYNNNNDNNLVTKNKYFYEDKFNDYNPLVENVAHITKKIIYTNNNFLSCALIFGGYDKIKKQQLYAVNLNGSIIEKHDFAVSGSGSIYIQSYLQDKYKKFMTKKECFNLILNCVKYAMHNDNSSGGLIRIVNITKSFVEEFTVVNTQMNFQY
Chain of Plasmodium falciparum 20S proteasome β1 (Q8I6T3 entry or part of it): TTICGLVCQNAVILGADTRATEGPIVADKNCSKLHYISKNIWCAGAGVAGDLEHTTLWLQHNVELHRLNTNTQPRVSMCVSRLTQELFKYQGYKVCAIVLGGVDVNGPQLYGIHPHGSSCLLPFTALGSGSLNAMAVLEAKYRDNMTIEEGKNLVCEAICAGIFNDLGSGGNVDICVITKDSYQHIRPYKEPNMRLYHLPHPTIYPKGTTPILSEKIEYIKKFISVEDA
Chain of Plasmodium falciparum 20S proteasome β1 (Q06323 whole entry, further chain): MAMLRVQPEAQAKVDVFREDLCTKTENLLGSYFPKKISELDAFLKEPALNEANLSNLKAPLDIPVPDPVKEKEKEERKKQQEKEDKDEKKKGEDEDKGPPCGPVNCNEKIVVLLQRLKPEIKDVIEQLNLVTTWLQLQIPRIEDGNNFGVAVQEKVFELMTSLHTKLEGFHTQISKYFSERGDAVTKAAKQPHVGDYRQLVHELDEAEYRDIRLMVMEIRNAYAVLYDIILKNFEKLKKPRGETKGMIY

[9] = target: Plasmodium falciparum 20S proteasome β2 (Plasmodium falciparum, UniProt Q8I261+Q8I6T3); format: biochemical
Chain of Plasmodium falciparum 20S proteasome β2 (Q8I261 entry or part of it): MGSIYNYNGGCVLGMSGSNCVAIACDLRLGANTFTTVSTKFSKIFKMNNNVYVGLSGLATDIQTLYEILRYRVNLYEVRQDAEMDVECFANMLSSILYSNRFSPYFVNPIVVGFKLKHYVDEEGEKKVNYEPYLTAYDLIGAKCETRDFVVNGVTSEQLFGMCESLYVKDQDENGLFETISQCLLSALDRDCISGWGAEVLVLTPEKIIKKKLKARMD
Chain of Plasmodium falciparum 20S proteasome β2 (Q06323 whole entry, further chain): as the sequence (Q06323 whole entry, further chain) above
Chain of Plasmodium falciparum 20S proteasome β2 (Q8I6T3 entry or part of it): as the sequence (Q8I6T3 entry or part of it) above
Chain of Plasmodium falciparum 20S proteasome β2 (Q9UL46 2-239, further chain): as the sequence (Q9UL46 2-239) above

[10] = target: Plasmodium falciparum 20S proteasome β5 (Plasmodium falciparum, UniProt A0A5K1K7U1+Q8IJT1); test: Pf20S proteasome fluorogenic assay, chymotrypsin-like activity (Ac-WLA-AMC); format: biochemical; conditions: 0.8 μM carfilzomib
Chain of Plasmodium falciparum 20S proteasome β5 (Q9UL46 2-239): as above
Chain of Plasmodium falciparum 20S proteasome β5 (A0A5K1K7U1 entry or part of it): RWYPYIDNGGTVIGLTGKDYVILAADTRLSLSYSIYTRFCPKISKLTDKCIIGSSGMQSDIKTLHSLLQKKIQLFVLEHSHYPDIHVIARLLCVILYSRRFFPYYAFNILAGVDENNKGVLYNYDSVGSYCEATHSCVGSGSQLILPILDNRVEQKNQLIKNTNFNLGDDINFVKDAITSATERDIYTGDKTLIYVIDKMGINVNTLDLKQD
Chain of Plasmodium falciparum 20S proteasome β5 (Q06323 whole entry, further chain): as the sequence (Q06323 whole entry, further chain) above
Chain of Plasmodium falciparum 20S proteasome β5 (Q8IJT1 entry or part of it): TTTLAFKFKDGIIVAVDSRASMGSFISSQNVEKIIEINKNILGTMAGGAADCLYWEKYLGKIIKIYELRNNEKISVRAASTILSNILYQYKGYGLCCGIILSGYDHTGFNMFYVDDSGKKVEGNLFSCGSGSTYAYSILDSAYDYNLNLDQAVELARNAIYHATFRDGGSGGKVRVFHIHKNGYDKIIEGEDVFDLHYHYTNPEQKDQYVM

Pf20S proteasome = test: Validation of resynthesized Ac-P3-P2-P1-AMC substrates, Pf20S; format: biochemical, P. falciparum; conditions: 10 μM
Protocol: (§2) AMC (10 μM) was used as the fluorescence standard. Pf20S reaction condition: Pf20S (1 nM), human PA28 αβ (24 nM), in 50 mM Tris, pH 7.5, 5 mM MgCl2, 1 mM DTT, 0.01% BSA. Human 20S reaction condition: 0.25 nM human constitutive proteasome or immunoproteasome (Boston Biochem), PA28 αβ (24 nM) in 20 mM HEPES, pH 7.4, 0.5 mM EDTA, 0.01% BSA. The assays were read in kinetic mode at 37 °C using a BMG PHERAstar plate reader, and the rate data were normalized to activity obtained using the Ac-WLR-AMC substrate (=1000 units). For validation of substrate preferences, relevant Ac-P3-P2-P1-AMC substrates were resynthesized by CPC Scientific, CA, USA, and assayed for activity against human and P. falciparum 20S proteasomes in 96-well plates (80 μL reaction, 10 μM substrate) under the same reaction condition.

human proteasome β2 = target: T1, human proteasome β2 (Homo sapiens, UniProt P49720+Q99436); test: Validation of resynthesized Ac-P3-P2-P1-AMC substrates, human proteasome; format: biochemical; conditions: 10 μM
T1 construct: purchased Boston Biochem
Protocol: as §2

CC(=O)N1CCC[C@H]1C(=O)N[C@@H](C)C(=O)N[C@@H](CC(C)C)B(O)O [MPI-2] was tested, and the “Pf3D7 LD50 (72 h)” value [1] was 0.16 ± 0.02 µM, the “Pf3D7 LD50 (72-h)” value [1] was 0.16 ± 0.02 µM and the “HCT116 LD50 (72 h)” value (HCT116 cells) was 1.3 ± 0.3 µM. The “HCT116 LD50 (72-h)” value (HCT116 cells) was 1.3 ± 0.3 µM, the “HepG2 LD50 (72 h)” value (HepG2 cells) was 2.4 ± 0.73 µM and the “HepG2 LD50( 72-h)” value (HepG2 cells) was 2.4 ± 0.73 µM. The “Cam3.II^R539T LD50 (3 h)” value [2] was 1.5 ± 0.2 µM, the “Cam3.IIR539T LD50 (3-h)” value [2] was 1.5 ± 0.2 µM and the “Cam3.II^Rev LD50 (3 h)” value [3] was 1.8 ± 0.2 µM. For the same compound, the “Cam3.IIRev LD50 (3-h)” value [3] was 1.8 ± 0.2 µM, the “cross-resistance of the bortezomib-resistant parasite line (B1)” value [4] was “very strong cross-resistance” and the “bortezomib-resistant 3D7 B1 line LD50 (72 h)” value [4] was over 2 µM. The “Bortezomib-resistant3D7 B1 LD50 (72-h)” value [4] was over 2 µM, the “subunit specificity by BMV037 probe labeling, wild-type 3D7” value [5] was “preferentially inhibited binding of the probe to the β5 subunit” and the “subunit specificity by BMV037 probe labeling, human constitutive proteasome and immunoproteasome” value [6] was “preferentially inhibited β1c and β5i”. For the same compound, the “BMV037 labeling of the β5 active site in bortezomib-resistant parasites” value [7] was “no longer able to prevent BMV037 labeling of the β5 active site”.
With Cc1ccc(S(=O)(=O)N[C@@H](CC(=O)NCC(C)(C)C)C(=O)N[C@@H](Cc2ccccc2)C(=O)N[C@@H](CC(C)C)B(O)O)cc1 [MPI-3] the IC50 ([1]; Plasmodium falciparum, 3D7, dose–response profiles, n = 3, read-out: 50% viability inhibitory concentration against 3D7 parasites) was about 60 nM, the “Pf3D7 LD50 (72 h)” value [1] was 0.065 ± 0.004 µM and the “Pf3D7 LD50 (72-h)” value [1] was 0.065 ± 0.004 µM. The “HCT116 LD50 (72 h)” value (HCT116 cells) was 0.027 ± 0.002 µM, the “HCT116 LD50 (72-h)” value (HCT116 cells) was 0.027 ± 0.002 µM and the “HepG2 LD50 (72 h)” value (HepG2 cells) was 0.26 ± 0.06 µM. For the same compound, the “HepG2 LD50( 72-h)” value (HepG2 cells) was 0.26 ± 0.06 µM, the “Cam3.II^R539T LD50 (3 h)” value [2] was 0.19 ± 0.03 µM and the “Cam3.IIR539T LD50 (3-h)” value [2] was 0.19 ± 0.03 µM. The “Cam3.II^Rev LD50 (3 h)” value [3] was 0.21 ± 0.03 µM, the “Cam3.IIRev LD50 (3-h)” value [3] was 0.21 ± 0.03 µM and the “cross-resistance of the bortezomib-resistant parasite line (B1)” value [4] was “retained sensitivity”. The “bortezomib-resistant 3D7 B1 line LD50 (72 h)” value [4] was 0.054 ± 0.007 µM, the “Bortezomib-resistant3D7 B1 LD50 (72-h)” value [4] was 0.054 ± 0.007 µM and the “subunit specificity by BMV037 probe labeling, wild-type 3D7” value [5] was “inhibited both β2 and β5 activities”. For the same compound, the “BMV037 labeling of the human β1 and β5 subunits after treatment” value ([6]; 1 μM, especially constitutive proteasome) was “still evident”, the “subunit specificity by BMV037 probe labeling, human constitutive proteasome and immunoproteasome” value [6] was “preferential inhibition of the β1 and β5 subunits” and the “BMV037 competition profile in bortezomib-resistant parasites” value [7] was “very similar in the bortezomib-resistant and wild-type parasites”.
CC(C)C[C@H](NC(=O)[C@H](CCc1ccccc1)NC(=O)CN1CCOCC1)C(=O)N[C@@H](Cc1ccccc1)C(=O)N[C@@H](CC(C)C)C(=O)[C@@]1(C)CO1 [carfilzomib] was tested, and the “inhibitory effect against Pf20S proteasome β1 activity” value [8] was “only weak inhibitory effect”, the “Pf20S β2 activity with carfilzomib” value [9] was “completely abrogated” and the “Pf20S β5 activity with carfilzomib” value [10] was “completely abrogated”.
In the case of Ac-Arg-Gln-Arg-{AMC}, the “activity as substrate for Pf20S” value (Pf20S proteasome) is reported as “inactive” and the “activity as substrate for human proteasome β2” value (human proteasome β2) is reported as “good human proteasome β2 substrate”.
In the case of Ac-Lys-Trp-His-{AMC}, the “activity as substrate for Pf20S” value (Pf20S proteasome) is reported as “both active and selective for Pf20S”.
With Ac-Trp-Trp-Lys-{AMC} the “activity as substrate for Pf20S” value (Pf20S proteasome) was “both active and selective for Pf20S”.
